Experimental data as given in patent publication US20190343908A1, “Therapeutic Combination for the Treatment of Cancer” (Nerium Biotechnology Inc., priority 2011, published 2019).

Experiments:
[1] = test system: COR-L 105 (non-small cell lung carcinoma); test: Crystal Violet viability assay, COR-L 105; format: cell-based, human; parameters: key to CVE Average: absorbance at 570 nm (crystal violet), background wavelength subtracted; conditions: for CVE Average 24 h / CVE Average 48 h / CVE Average 72 h: COR-L 105, Run 3
From the text: (§1) Three different viability assays were chosen to complement each other and yielded results dependent on concentration and cell line: the Methyl Tetrazolium dye assay, the Sulforhodamine B fluorescent dye assay, and the Crystal Violet dye assay.
(§2) The Sulforhodamine B and Crystal Violet assays provide information about protein and were used to complement the Methyl-Tetrazolium dye assay. […] It is used for the quantification of cellular proteins of cultured cells. The assay using Crystal Violet, a dye that binds electrostatically to proteins and stains DNA, provides a reliable, simple assay for measuring viability of cells.
(§3) The Methyl Tetrazolium, Sulforhodamine B, and Crystal Violet assays were used to assess cell viabilities. The incubation times were 24 hours, 48 hours, and 72 hours. The Nerium oleander extract Anvirzel™ (a hot water extract of oleander obtained from Salud Integral, Honduras) was tested in concentrations ranging from 0.01 ng/mL to 10 ng/mL.
(§4) Cells were detached by trypsinization (Trypsin-0.25% EDTA, Invitrogen, 25200-072) during the logarithmic phase of culture growth and plated in 96-well plates (18.000 cells/well) (Corning, Costar 359) in a final volume of 200 μl of medium per well. […] The absorbance was measured after 24 hours, 48 hours, and 72 hours of incubation.
For the Crystal Violet assay, the medium was removed from the 96-well plates, the plates rinsed with PBS (Sigma, P3813) and then the cells were […] by the addition of 10% formalin (MERCK, 1.04003.2500) for 20 minutes at RT. Formalin was removed and 0.25% aqueous crystal violet (Sigma, HT901), dissolved in water, was added for 10 minutes at RT. Unbound Crystal Violet was rinsed by washing with water and finally 33% acetic acid was added to dissolve the dye.
(§5) The optical density of each plate was measured on a μQuant spectrophotometer and the data were analyzed with Gen5 software (μQuant Biomolecular Spectrophotometer MQX200 and Gen5™ Microplate Data Collection & Analysis software, BioTek® Instruments. Inc, April 2008). Absorbance was measured at 570 nm for all assays and a second wavelength was measured in order to subtract noise. For the Methyl-Tetrazolium assay this second wavelength was 630 nm and for the Sulforhodamine B and Crystal Violet assays it was 690 nm.

[2] = test system: HT55 (colorectal cancer); test: Sulforhodamine B viability assay, HT55; format: cell-based, human; parameters: key: absorbance (optical density) at 570 nm, second wavelength subtracted
From the text: as §1, §2, §3, §4
For the Sulforhodamine B assay, 96-well plates were fixed by 10% trichloroacetic acid (Fluka, 91228) and were incubated at 4° C. for 1 hour. Afterwards, plates were rinsed with water and cells were stained with 0.4% Sulforhodamine B (Sigma, 341738), dissolved in 1% acetic acid (Carlo Ebra, 401422) for 15 minutes at room temperature (RT). The unbound stain was washed twice with 1% acetic acid. Finally, 10 mM Tris Buffer pH 10.5 (Sigma, T6791) was added to dissolve the dye.
as §5

How did the “CVE Average 24 h” value ([1]; 0.1 μg/ml CDDP) turn out when `N.N.[Cl][Pt][Cl]` [cisplatin] was run?
The value was 0.388.

What about the “CVE Average 48 h” value ([1]; 0.1 μg/ml CDDP) of the same compound?
Its value is 0.709.

And the “CVE Average 72 h” value ([1]; 0.1 μg/ml CDDP)?
Its value is 0.457.

And the “CVE Average 24 h” value ([1]; 1 μg/ml CDDP)?
The value was 0.363.

And the “CVE Average 48 h” value ([1]; 1 μg/ml CDDP)?
The value was 0.517.

And the “CVE Average 72 h” value ([1]; 1 μg/ml CDDP)?
Its value is 0.263.

And the “CVE Average 24 h” value ([1]; 10 μg/ml CDDP)?
Its value is 0.358.

And the “CVE Average 48 h” value ([1]; 10 μg/ml CDDP)?
The value was 0.653.

And the “CVE Average 72 h” value ([1]; 10 μg/ml CDDP)?
The value was 0.387.

And the “CVE Average 24 h” value ([1]; 100 μg/ml CDDP)?
Its value is 0.282.

And the “CVE Average 48 h” value ([1]; 100 μg/ml CDDP)?
Its value is 0.341.

And the “CVE Average 72 h” value ([1]; 100 μg/ml CDDP)?
The value was 0.389.

And the “CVE Average” value ([1]; Run 1, 24 h, 0.1 μg/ml CDDP)?
Its value is 0.413.

And the “CVE Average” value ([1]; Run 1, 24 h, 1 μg/ml CDDP)?
The value was 0.431.

What about the “CVE Average” value ([1]; Run 1, 24 h, 10 μg/ml CDDP) of the same compound?
Its value is 0.484.

What about the “CVE Average” value ([1]; Run 1, 24 h, 100 μg/ml CDDP) of the same compound?
The value was 0.307.

And the “CVE Average” value ([1]; Run 1, 48 h, 0.1 μg/ml CDDP)?
The value was 0.599.

And the “CVE Average” value ([1]; Run 1, 48 h, 1 μg/ml CDDP)?
The value was 0.643.

And the “CVE Average” value ([1]; Run 1, 48 h, 10 μg/ml CDDP)?
Its value is 0.632.

And the “CVE Average” value ([1]; Run 1, 48 h, 100 μg/ml CDDP)?
The value was 0.379.

What about the “CVE Average” value ([1]; Run 1, 72 h, 0.1 μg/ml CDDP) of the same compound?
Its value is 0.298.

And the “CVE Average” value ([1]; Run 1, 72 h, 1 μg/ml CDDP)?
The value was 0.23.

What about the “CVE Average” value ([1]; Run 1, 72 h, 10 μg/ml CDDP) of the same compound?
Its value is 0.216.

What about the “CVE Average” value ([1]; Run 1, 72 h, 100 μg/ml CDDP) of the same compound?
The value was 0.244.

And the “CVE Average” value ([1]; Run 2, 24 h, 0.1 μg/ml CDDP)?
Its value is 0.388.

What about the “CVE Average” value ([1]; Run 2, 24 h, 1 μg/ml CDDP) of the same compound?
Its value is 0.363.

What about the “CVE Average” value ([1]; Run 2, 24 h, 10 μg/ml CDDP) of the same compound?
Its value is 0.358.

And the “CVE Average” value ([1]; Run 2, 24 h, 100 μg/ml CDDP)?
Its value is 0.282.

What about the “CVE Average” value ([1]; Run 2, 48 h, 0.1 μg/ml CDDP) of the same compound?
The value was 0.709.

What about the “CVE Average” value ([1]; Run 2, 48 h, 1 μg/ml CDDP) of the same compound?
The value was 0.517.

And the “CVE Average” value ([1]; Run 2, 48 h, 10 μg/ml CDDP)?
The value was 0.653.

And the “CVE Average” value ([1]; Run 2, 48 h, 100 μg/ml CDDP)?
The value was 0.341.

And the “CVE Average” value ([1]; Run 2, 72 h, 0.1 μg/ml CDDP)?
Its value is 0.457.

What about the “CVE Average” value ([1]; Run 2, 72 h, 1 μg/ml CDDP) of the same compound?
The value was 0.263.

And the “CVE Average” value ([1]; Run 2, 72 h, 10 μg/ml CDDP)?
The value was 0.387.

What about the “CVE Average” value ([1]; Run 2, 72 h, 100 μg/ml CDDP) of the same compound?
Its value is 0.389.

What about the “SRB Average” value ([2]; HT55, Run 1, 24 h, 0.1 μg/ml CDDP) of the same compound?
The value was 2.17.

What about the “SRB Average” value ([2]; HT55, Run 1, 24 h, 1 μg/ml CDDP) of the same compound?
The value was 2.229.

And the “SRB Average” value ([2]; HT55, Run 1, 24 h, 10 μg/ml CDDP)?
Its value is 2.246.

And the “SRB Average” value ([2]; HT55, Run 1, 24 h, 100 μg/ml CDDP)?
Its value is 2.052.

And the “SRB Average” value ([2]; HT55, Run 1, 48 h, 0.1 μg/ml CDDP)?
The value was 2.437.

What about the “SRB Average” value ([2]; HT55, Run 1, 48 h, 1 μg/ml CDDP) of the same compound?
Its value is 2.238.

What about the “SRB Average” value ([2]; HT55, Run 1, 48 h, 10 μg/ml CDDP) of the same compound?
The value was 2.

And the “SRB Average” value ([2]; HT55, Run 1, 48 h, 100 μg/ml CDDP)?
The value was 2.009.

And the “SRB Average” value ([2]; HT55, Run 1, 72 h, 0.1 μg/ml CDDP)?
The value was 2.413.

What about the “SRB Average” value ([2]; HT55, Run 1, 72 h, 1 μg/ml CDDP) of the same compound?
The value was 2.434.

And the “SRB Average” value ([2]; HT55, Run 1, 72 h, 10 μg/ml CDDP)?
The value was 2.222.

What about the “SRB Average” value ([2]; HT55, Run 1, 72 h, 100 μg/ml CDDP) of the same compound?
The value was 1.875.

And the “SRB Average” value ([2]; HT55 Run 2, 24 h, 0.1 μg/ml CDDP)?
Its value is 2.445.

What about the “SRB Average” value ([2]; HT55 Run 2, 24 h, 1 μg/ml CDDP) of the same compound?
The value was 2.327.

What about the “SRB Average” value ([2]; HT55 Run 2, 24 h, 10 μg/ml CDDP) of the same compound?
The value was 2.387.

What about the “SRB Average” value ([2]; HT55 Run 2, 24 h, 100 μg/ml CDDP) of the same compound?
Its value is 2.766.

What about the “SRB Average” value ([2]; HT55 Run 2, 48 h, 0.1 μg/ml CDDP) of the same compound?
Its value is 2.408.
